Holding throughout (type): biochemical
In one experiment the target is JAK2 (Homo sapiens (Human), UniProt O60674). Nature of the experiment: JAK/TYK2 assay (Kinase Glo luminescence), JAK2. As to conditions: 0.8 nM enzyme, 2 uM ATP, 4 uM pEY, 1 hr. How it is done:
(§1) 10 mM test compound stock or 1 mM control compound stock (tofocitinib, ruxolitinib or staurosporine) in DMSO was diluted to 0.4 mM in DMSO. A 3-fold series dilution was then performed in DMSO to generate 10 different compound concentrations. The assay was carried out in 384-well white plate. 0.5 uL of 40× compound DMSO solution at different concentrations was mixed with 10 uL 2× enzyme prepared in reaction buffer (20 mM HEPES, 10 mM MgCl2, 0.01% Tween, 1 mM DTT, pH 7.5). 10 uL 2× substrate mixture prepared in reaction buffer was then added to start the reaction. A short spin was done to settle down all solutions to the bottom of the plate. Final concentrations of test compound in the reaction mixture were 10000, 3333, 1111, 370, 123, 41.2, 13.7, 4.57, 1.52and 0.51 nM. Concentrations of control compound were ten times less. Enzymatic reaction was conducted at 25° C. for 1-2 hours. 10 uL of Kinase Glo Reagents was added to stop the reaction and generate the luminescent signal which was measured using Envision. Luminescence signal was inversely related to kinase activity. […] The mixture without any compound was the positive control.
A general note: Kinase-Glo reads ATP consumption through a luciferase reaction.

A further experiment addresses JAK3 (Homo sapiens (Human), UniProt P52333). The experiment can be described thus: JAK/TYK2 assay (Kinase Glo luminescence), JAK3. The settings on record: 1.5 nM enzyme, 2 uM ATP, 4 uM pEY, 1 hr. The method, then: as §1
The next experiment has as its target JAK1 (Homo sapiens (Human), UniProt P23458). Nature of the experiment: JAK/TYK2 assay (Kinase Glo luminescence), JAK1. The settings on record: 7.5 nM enzyme, 2 uM ATP, 30 uM IRS-1, 1 hr. How it is done: as §1
A further experiment deals with TYK2 (Homo sapiens (Human), UniProt P29597). Nature of the experiment: JAK/TYK2 assay (Kinase Glo luminescence), TYK2. The settings on record: 9 nM enzyme, 2 uM ATP, 30 uM IRS-1, 1 hr. The method, then: as §1
Chain of TYK2 (P29597 whole entry, species assumed): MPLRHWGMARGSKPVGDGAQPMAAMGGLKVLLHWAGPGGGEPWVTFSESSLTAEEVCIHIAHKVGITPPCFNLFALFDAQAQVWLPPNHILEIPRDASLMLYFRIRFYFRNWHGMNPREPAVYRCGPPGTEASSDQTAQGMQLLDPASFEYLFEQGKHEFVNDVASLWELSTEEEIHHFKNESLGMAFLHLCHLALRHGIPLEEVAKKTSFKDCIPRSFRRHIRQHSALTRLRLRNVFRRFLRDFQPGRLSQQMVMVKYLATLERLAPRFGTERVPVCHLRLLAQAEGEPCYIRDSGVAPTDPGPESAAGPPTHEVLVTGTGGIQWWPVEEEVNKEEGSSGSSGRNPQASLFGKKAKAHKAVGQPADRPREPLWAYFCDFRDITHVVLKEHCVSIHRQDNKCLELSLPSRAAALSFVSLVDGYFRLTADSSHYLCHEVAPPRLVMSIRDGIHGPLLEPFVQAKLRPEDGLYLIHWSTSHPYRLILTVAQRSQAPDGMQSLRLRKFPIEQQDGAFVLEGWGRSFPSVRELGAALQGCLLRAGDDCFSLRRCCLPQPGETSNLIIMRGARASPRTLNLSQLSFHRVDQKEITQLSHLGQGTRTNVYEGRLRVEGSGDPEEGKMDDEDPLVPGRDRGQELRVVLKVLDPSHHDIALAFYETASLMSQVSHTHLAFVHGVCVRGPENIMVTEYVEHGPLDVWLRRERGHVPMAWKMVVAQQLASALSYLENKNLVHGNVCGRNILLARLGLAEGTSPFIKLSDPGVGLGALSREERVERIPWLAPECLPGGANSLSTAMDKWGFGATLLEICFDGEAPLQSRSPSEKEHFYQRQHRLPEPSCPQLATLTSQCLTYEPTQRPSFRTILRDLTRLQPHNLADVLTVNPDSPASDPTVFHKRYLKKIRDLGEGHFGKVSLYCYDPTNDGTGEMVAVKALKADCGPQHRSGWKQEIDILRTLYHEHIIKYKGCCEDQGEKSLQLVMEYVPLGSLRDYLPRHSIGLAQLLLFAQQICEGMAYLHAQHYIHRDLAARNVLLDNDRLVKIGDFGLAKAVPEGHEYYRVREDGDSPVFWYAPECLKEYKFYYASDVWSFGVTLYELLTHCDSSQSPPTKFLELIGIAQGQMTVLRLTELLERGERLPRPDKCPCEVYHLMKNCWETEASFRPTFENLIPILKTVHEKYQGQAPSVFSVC

Molecules are shown by their SMILES.

A word on the IC50: it is the concentration that inhibits the measured activity by half. A low value points to greater potency in that assay.

Chain of JAK3 (P52333 whole entry, species assumed): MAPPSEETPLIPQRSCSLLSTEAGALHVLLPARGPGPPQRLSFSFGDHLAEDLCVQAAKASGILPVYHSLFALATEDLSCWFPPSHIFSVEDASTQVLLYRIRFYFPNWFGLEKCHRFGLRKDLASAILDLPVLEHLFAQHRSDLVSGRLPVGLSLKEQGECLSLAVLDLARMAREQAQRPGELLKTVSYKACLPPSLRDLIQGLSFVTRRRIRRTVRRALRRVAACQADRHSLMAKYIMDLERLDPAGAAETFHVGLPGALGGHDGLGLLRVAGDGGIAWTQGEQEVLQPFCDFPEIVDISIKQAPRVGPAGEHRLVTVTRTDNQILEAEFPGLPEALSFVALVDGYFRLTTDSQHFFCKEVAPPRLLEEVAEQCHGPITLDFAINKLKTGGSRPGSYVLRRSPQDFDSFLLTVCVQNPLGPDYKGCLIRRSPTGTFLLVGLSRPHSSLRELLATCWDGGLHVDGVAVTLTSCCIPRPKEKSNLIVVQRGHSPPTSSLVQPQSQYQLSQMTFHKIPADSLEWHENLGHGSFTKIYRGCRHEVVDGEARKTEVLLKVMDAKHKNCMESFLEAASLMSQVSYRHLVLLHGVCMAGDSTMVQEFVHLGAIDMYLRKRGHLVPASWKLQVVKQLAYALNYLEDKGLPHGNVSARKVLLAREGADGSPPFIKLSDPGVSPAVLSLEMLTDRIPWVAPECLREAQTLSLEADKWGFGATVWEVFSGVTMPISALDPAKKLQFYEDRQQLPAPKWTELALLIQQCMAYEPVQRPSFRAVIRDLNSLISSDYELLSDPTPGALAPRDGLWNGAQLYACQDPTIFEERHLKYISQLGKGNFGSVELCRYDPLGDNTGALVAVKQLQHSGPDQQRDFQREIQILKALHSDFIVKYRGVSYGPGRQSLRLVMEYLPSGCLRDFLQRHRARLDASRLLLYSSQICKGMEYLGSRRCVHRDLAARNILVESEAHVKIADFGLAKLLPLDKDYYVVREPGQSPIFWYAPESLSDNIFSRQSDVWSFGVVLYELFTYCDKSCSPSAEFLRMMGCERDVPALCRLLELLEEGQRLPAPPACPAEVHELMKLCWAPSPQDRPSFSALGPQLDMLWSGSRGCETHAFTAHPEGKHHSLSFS
Chain of JAK1 (P23458 whole entry, species assumed): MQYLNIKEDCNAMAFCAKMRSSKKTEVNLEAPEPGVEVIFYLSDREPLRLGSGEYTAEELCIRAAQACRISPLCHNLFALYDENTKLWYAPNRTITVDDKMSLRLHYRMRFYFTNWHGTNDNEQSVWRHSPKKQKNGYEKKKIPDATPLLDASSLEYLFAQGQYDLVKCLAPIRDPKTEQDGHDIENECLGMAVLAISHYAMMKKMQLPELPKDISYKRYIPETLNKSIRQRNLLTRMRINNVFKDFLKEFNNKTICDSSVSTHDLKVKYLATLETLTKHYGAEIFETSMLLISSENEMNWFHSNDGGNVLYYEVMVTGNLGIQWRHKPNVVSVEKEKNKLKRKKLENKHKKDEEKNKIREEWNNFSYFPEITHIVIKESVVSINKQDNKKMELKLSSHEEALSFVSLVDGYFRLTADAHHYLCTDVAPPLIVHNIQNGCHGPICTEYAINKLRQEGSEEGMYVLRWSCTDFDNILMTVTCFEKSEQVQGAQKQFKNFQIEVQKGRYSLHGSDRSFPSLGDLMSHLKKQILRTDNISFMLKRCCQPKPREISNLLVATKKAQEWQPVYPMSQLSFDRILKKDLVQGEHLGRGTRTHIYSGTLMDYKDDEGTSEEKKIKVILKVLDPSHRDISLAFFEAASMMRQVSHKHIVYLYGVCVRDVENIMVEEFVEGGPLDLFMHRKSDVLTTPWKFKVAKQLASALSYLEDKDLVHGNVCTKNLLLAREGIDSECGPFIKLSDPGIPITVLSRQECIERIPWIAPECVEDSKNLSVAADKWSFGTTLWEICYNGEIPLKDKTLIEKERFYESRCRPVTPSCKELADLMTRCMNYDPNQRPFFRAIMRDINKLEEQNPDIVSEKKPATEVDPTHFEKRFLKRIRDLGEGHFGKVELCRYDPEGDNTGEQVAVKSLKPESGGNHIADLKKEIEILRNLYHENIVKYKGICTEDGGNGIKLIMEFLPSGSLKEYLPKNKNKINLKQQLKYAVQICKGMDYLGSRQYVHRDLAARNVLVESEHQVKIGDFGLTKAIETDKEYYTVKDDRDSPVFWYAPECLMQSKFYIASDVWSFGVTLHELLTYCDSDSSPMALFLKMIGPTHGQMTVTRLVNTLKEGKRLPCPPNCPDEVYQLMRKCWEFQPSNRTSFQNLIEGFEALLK
Chain of JAK2 (O60674 whole entry, species assumed): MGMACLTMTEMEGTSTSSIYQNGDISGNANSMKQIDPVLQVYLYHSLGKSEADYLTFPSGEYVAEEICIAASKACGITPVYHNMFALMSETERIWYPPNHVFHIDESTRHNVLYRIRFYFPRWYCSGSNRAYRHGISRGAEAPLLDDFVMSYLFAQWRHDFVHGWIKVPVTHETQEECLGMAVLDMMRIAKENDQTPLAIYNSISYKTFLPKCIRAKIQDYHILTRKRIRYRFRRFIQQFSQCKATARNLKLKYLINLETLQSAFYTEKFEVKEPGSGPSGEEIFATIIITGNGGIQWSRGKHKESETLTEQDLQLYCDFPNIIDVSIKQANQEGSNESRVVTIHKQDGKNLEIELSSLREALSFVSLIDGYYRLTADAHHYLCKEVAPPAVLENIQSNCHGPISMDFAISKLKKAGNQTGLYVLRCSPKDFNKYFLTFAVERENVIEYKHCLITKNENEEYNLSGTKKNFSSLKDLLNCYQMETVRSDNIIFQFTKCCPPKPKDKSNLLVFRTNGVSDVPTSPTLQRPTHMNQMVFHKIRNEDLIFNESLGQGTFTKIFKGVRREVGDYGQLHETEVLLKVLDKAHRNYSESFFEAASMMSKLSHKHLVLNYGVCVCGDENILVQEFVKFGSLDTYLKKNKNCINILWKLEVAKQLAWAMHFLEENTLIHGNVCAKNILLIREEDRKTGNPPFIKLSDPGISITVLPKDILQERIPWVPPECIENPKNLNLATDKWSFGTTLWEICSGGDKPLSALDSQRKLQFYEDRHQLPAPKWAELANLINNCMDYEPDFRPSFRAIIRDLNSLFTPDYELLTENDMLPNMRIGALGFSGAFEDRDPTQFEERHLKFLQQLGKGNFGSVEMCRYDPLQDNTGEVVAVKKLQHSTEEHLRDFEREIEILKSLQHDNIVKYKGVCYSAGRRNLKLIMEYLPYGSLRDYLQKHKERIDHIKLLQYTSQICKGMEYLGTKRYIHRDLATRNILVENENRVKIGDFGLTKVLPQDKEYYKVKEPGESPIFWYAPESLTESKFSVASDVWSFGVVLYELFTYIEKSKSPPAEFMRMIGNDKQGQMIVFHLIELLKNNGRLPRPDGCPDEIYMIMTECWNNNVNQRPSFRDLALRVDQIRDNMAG

With `CCOC(=O)Cn1cc(Nc2ncc3ccn(CC4CC5CCC4C5)c3n2)cn1` (stereo not shown) [Compound 40, ethyl 2-(4-((7-(bicyclo[2.2.1]heptan-2-ylmethyl)-7H-pyrrolo[2,3-d]pyrimidin-2-yl)amino)-1H-pyrazol-1-yl)acetate], the IC50 on JAK2, against JAK3, against JAK1 and on TYK2 was less than 100 nM throughout.
For `CCC(Cn1ccc2cnc(Nc3cnn(CC(=O)O[C@@H](C)CO)c3)nc21)C(C)C` (stereo partly drawn) [Compound 105, (S)-1-hydroxypropan-2-yl 2-(4-((7-(2-ethyl-3-methylbutyl)-7H-pyrrolo[2,3-d]pyrimidin-2-yl)amino)-1H-pyrazol-1-yl)acetate], the IC50 against JAK2, at JAK3, against JAK1 and against TYK2 was less than 100 nM in each case.
On to `CCOC(=O)Cn1cc(Nc2ncc3ccn(CC4CCSCC4)c3n2)cn1` [Compound 126, ethyl 2-(4-((7-((tetrahydro-2H-thiopyran-4-yl)methyl)-7H-pyrrolo[2,3-d]pyrimidin-2-yl)amino)-1H-pyrazol-1-yl)acetate], for which the values for the IC50 against JAK2, on JAK1 and at TYK2 were less than 100 nM, 100 to 1000 nM and less than 100 nM, respectively.
For the compound `CCOC(=O)C(C)n1cc(Nc2ncc3ccn(C[C@@H](CC)C(C)C)c3n2)cn1` (stereo partly drawn) [Compound 118, ethyl 2-(4-((7-((S)-2-ethyl-3-methylbutyl)-7H-pyrrolo[2,3-d]pyrimidin-2-yl)amino)-1H-pyrazol-1-yl)propanoate], the half-maximal inhibitory concentration (IC50) on JAK2, against JAK3, at JAK1 and on TYK2 was less than 100 nM in each case.
In the case of `CCOC(=O)Cn1cc(Nc2ncc3ccn(C[C@H]4CCC[C@@H](OC)C4)c3n2)cn1` [Compound 130, ethyl 2-(4-((7-(((1S,3R)-3-methoxycyclohexyl)methyl)-7H-pyrrolo[2,3-d]pyrimidin-2-yl)amino)-1H-pyrazol-1-yl)acetate], the IC50 at JAK2, against JAK3, against JAK1 and on TYK2 was less than 100 nM throughout.
As for `CCOC(=O)Cn1cc(Nc2ncc3ccn(CC4CCCC4)c3n2)cn1` [Compound 17, ethyl 2-(4-((7-(cyclopentylmethyl)-7H-pyrrolo[2,3-d]pyrimidin-2-yl)amino)-1H-pyrazol-1-yl)acetate], the IC50 against JAK2, against JAK3, at JAK1 and against TYK2 was less than 100 nM each time.
Take `CCOC(=O)Cn1cc(Nc2ncc3ccn(CC4CCCCC4)c3n2)cn1` [Compound 13, ethyl 2-(4-((7-(cyclohexylmethyl)-7H-pyrrolo[2,3-d]pyrimidin-2-yl)amino)-1H-pyrazol-1-yl)acetate]: the IC50 at JAK2, against JAK3, against JAK1 and on TYK2 was less than 100 nM throughout.
As for `CCOC(=O)Cn1cc(Nc2ncc3c(Cl)cn(CC4CCCCC4)c3n2)cn1` [Compound 60, ethyl 2-(4-((5-chloro-7-(cyclohexylmethyl)-7H-pyrrolo[2,3-d]pyrimidin-2-yl)amino)-1H-pyrazol-1-yl)acetate], at JAK3, the IC50 was less than 100 nM.
On to `CCC(Cn1ccc2cnc(Nc3cnn(CCC(=O)O)c3)nc21)C(C)C` (stereo not shown) [Compound 31, 3-(4-((7-(2-ethyl-3-methylbutyl)-7H-pyrrolo[2,3-d]pyrimidin-2-yl)amino)-1H-pyrazol-1-yl)propanoic acid], for which the half-inhibitory concentration (IC50) at JAK2, on JAK3, against JAK1 and against TYK2 was less than 100 nM throughout.
Turning to `CC(C)C(Cn1ccc2cnc(Nc3cnn(CC(=O)OCCO)c3)nc21)C(C)C` [Compound 88, 2-hydroxyethyl 2-(4-((7-(2-isopropyl-3-methylbutyl)-7H-pyrrolo[2,3-d]pyrimidin-2-yl)amino)-1H-pyrazol-1-yl)acetate], the IC50 against JAK2, against JAK3, at JAK1 and on TYK2 was less than 100 nM each time.
As for `CCOC(=O)C(C)(C)n1cc(Nc2ncc3ccn(CC(CC)CC)c3n2)cn1` [Compound 27, ethyl 2-(4-((7-(2-ethylbutyl)-7H-pyrrolo[2,3-d]pyrimidin-2-yl)amino)-1H-pyrazol-1-yl)-2-methylpropanoate], the 50% inhibitory concentration (IC50) on JAK2, at JAK3, against JAK1 and on TYK2 was less than 100 nM each time.
Regarding `CCOC(=O)Cn1cc(Nc2ncc3ccn(CC4CCC(C)CC4)c3n2)cn1` (stereo not shown) [Compound 46, ethyl 2-(4-((7-((4-methylcyclohexyl)methyl)-7H-pyrrolo[2,3-d]pyrimidin-2-yl)amino)-1H-pyrazol-1-yl)acetate], the half-inhibitory concentration (IC50) against JAK2, on JAK3, on JAK1 and at TYK2 was less than 100 nM in each case.
Take `CCOC(=O)Cn1cc(Nc2ncc3ccn(C[C@H]4CC[C@H](N)CC4)c3n2)cn1` [Compound 127, ethyl 2-(4-((7-(((1r,4r)-4-aminocyclohexyl)methyl)-7H-pyrrolo[2,3-d]pyrimidin-2-yl)amino)-1H-pyrazol-1-yl)acetate]: the concentration for half-maximal inhibition (IC50) on JAK2, against JAK3, against JAK1 and against TYK2 was less than 100 nM in each case.
Consider `CCC(Cn1ccc2cnc(Nc3cnn(CC(=O)O)c3)nc21)C(C)C` (stereo not shown) [Compound 29, 2-(4-((7-(2-ethyl-3-methylbutyl)-7H-pyrrolo[2,3-d]pyrimidin-2-yl)amino)-1H-pyrazol-1-yl)acetic acid], for which the IC50 on JAK2, at JAK3, on JAK1 and against TYK2 was less than 100 nM in each case.
As for `CC[C@@H](Cn1ccc2cnc(Nc3cnn(C(C)C(=O)O)c3)nc21)C(C)C` (stereo partly drawn) [Compound 114, 2-(4-((7-((R)-2-ethyl-3-methylbutyl)-7H-pyrrolo[2,3-d]pyrimidin-2-yl)amino)-1H-pyrazol-1-yl)propanoic acid], the IC50 on JAK2, at JAK3, against JAK1 and at TYK2 was less than 100 nM each time.
On to `CCC(Cn1ccc2cnc(Nc3cnn(C(=O)OC(C)(C)C)c3)nc21)C(C)C` (stereo not shown) [Compound 137, tert-butyl 4-((7-(2-ethyl-3-methylbutyl)-7H-pyrrolo[2,3-d]pyrimidin-2-yl)amino)-1H-pyrazole-1-carboxylate], for which the IC50 against JAK2, against JAK3, at JAK1 and against TYK2 was less than 100 nM in each case.
`C=CC(=O)Nc1cccc(Cn2ccc3cnc(Nc4cnn(CC(=O)OCC)c4)nc32)c1` [Compound 95, ethyl 2-(4-((7-(3-acrylamidobenzyl)-7H-pyrrolo[2,3-d]pyrimidin-2-yl)amino)-1H-pyrazol-1-yl)acetate]: the IC50 on JAK2, at JAK3 and against JAK1 was 100 to 1000 nM throughout.
At JAK3, `CCOC(=O)c1ccc(Nc2ncc3ccn(Cc4ccsc4)c3n2)cc1` [Compound 12, ethyl 4-((7-(thiophen-3-ylmethyl)-7H-pyrrolo[2,3-d]pyrimidin-2-yl)amino)benzoate] returned an IC50 of 100 to 1000 nM.
`CCOC(=O)c1ccc(Cn2ccc3cnc(Nc4cnn(C)c4)nc32)s1` [Compound 58, ethyl 5-((2-((1-methyl-1H-pyrazol-4-yl)amino)-7H-pyrrolo[2,3-d]pyrimidin-7-yl)methyl)thiophene-2-carboxylate] displayed a concentration for half-maximal inhibition (IC50) against JAK3 of 1000 to 10000 nM.
On to `CCOC(=O)Cn1cc(Nc2ncc3ccn(CC4CCS(=O)(=O)CC4)c3n2)cn1` [Compound 125, ethyl 2-(4-((7-((1,1-dioxidotetrahydro-2H-thiopyran-4-yl)methyl)-7H-pyrrolo[2,3-d]pyrimidin-2-yl)amino)-1H-pyrazol-1-yl)acetate], for which the IC50 on JAK2 lay within 1000 to 10000 nM; against JAK1, 1000 to 10000 nM; against TYK2, 100 to 1000 nM.
Take `CCOC(=O)Cn1ccc2cnc(Nc3cnn(C)c3)nc21` [Compound 57, ethyl 2-(2-((1-methyl-1H-pyrazol-4-yl)amino)-7H-pyrrolo[2,3-d]pyrimidin-7-yl)acetate]: the figures for the IC50 against JAK2, against JAK3 and on JAK1 were 100 to 1000 nM, 1000 to 10000 nM and 1000 to 10000 nM, respectively.
On JAK3, `CCOC(=O)Cn1cc(Nc2ncc3ccn(CC4CC4)c3n2)cn1` [Compound 25, ethyl 2-(4-((7-(cyclopropylmethyl)-7H-pyrrolo[2,3-d]pyrimidin-2-yl)amino)-1H-pyrazol-1-yl)acetate] showed an IC50 of less than 100 nM.
As for `CCOC(=O)c1nc(Cn2ccc3cnc(Nc4cnn(C)c4)nc32)cs1` [Compound 56], the IC50 on JAK2, against JAK3 and on JAK1 was 1000 to 10000 nM in each case.
In the case of `CCOC(=O)Cn1cc(Nc2ncc3ccn(C[C@H]4CC[C@H](NC)CC4)c3n2)cn1` [Compound 123], the half-inhibitory concentration (IC50) was less than 100 nM against JAK2, 100 to 1000 nM against JAK1 and less than 100 nM against TYK2.
On JAK3, `CCOC(=O)Cn1cc(Nc2ncc3ccn(CC4CCC4)c3n2)cn1` [Compound 14, ethyl 2-(4-((7-(cyclobutylmethyl)-7H-pyrrolo[2,3-d]pyrimidin-2-yl)amino)-1H-pyrazol-1-yl)acetate] returned an IC50 of less than 100 nM.

For the origin of these results see patent publication US11136329B2, “JAK inhibitors” (Vimalan Biosciences, Inc., priority 2019, dated 2021).
